One test has as its target T1, rat TRPV1 (Rattus norvegicus, UniProt O35433).
T1 construct: expressed in transfected cells; host or cells: HEK293 (rTRPV1/HEK293), geneticin selection
Kind of test: Functional assay: block of capsaicin-induced Ca2+ influx, rat assay (rTRPV1/HEK293, FLIPR). It is filed as cell-based. The following applies: rTRPV1/HEK293 cells, capsaicin challenge, Fluo-3 fluorescence; mean; > value = solubility limit in assay medium. Put shortly:
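HEK293 cells expressing rat TRPV1, loaded with fluo3 and preincubated 30 min with compound in 20 μM Ca2+ buffer before capsaicin challenge. Block read as fluo3 fluorescence change over 100 s after agonist, 3-fold series from 10 μM in duplicate. IC50 by non-linear regression, mean values.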

The target in the next test is T2, human TRPV1 (Homo sapiens, UniProt Q8NER1).
T2 construct: expressed in transfected cells; host or cells: HEK293 (hTRPV1/HEK293), zeocin selection
T2 sequence (Q8NER1 whole entry): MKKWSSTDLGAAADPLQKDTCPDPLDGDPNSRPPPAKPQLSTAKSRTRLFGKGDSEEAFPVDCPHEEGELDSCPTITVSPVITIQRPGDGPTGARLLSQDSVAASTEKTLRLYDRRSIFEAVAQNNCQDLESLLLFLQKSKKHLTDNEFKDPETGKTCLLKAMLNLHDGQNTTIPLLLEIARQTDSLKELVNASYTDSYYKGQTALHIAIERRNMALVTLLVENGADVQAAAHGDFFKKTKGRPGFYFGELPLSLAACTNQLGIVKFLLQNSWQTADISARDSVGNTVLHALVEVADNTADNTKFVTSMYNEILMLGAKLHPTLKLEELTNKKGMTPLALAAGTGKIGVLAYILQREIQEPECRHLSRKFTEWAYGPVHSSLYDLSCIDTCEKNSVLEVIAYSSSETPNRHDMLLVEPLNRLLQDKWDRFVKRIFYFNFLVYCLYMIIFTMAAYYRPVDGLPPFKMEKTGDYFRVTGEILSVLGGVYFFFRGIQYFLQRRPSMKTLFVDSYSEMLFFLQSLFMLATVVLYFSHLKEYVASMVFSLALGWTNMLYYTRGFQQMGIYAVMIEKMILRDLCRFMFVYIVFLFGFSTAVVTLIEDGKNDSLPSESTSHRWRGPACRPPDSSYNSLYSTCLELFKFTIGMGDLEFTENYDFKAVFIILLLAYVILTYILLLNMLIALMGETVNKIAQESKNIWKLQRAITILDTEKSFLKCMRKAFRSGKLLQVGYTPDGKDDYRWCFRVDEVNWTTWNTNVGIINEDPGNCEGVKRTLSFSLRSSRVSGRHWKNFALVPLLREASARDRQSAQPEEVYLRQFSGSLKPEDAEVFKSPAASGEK
Kind of test: Functional assay: block of capsaicin-induced Ca2+ influx, human assay (hTRPV1/HEK293, FLIPR). It is filed as cell-based. The following applies: hTRPV1/HEK293 cells, 150 nM capsaicin challenge, Fluo-3 fluorescence; mean; > value = solubility limit in assay medium. In outline: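 HEK293 cells stably expressing human TRPV1, fluo3-loaded, preincubated 30 min with compound (serial 3-fold dilutions from 10 μM, duplicate) in 20 μM Ca2+ buffer. Capsaicin response taken as fluo3 fluorescence change before vs 100 s after agonist; IC50 by non-linear regression, mean values; free base or TFA salt.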

What is called IC50 is the concentration that inhibits the measured activity by half. A higher IC50 goes with a need for much substance.

T1 sequence (O35433 whole entry): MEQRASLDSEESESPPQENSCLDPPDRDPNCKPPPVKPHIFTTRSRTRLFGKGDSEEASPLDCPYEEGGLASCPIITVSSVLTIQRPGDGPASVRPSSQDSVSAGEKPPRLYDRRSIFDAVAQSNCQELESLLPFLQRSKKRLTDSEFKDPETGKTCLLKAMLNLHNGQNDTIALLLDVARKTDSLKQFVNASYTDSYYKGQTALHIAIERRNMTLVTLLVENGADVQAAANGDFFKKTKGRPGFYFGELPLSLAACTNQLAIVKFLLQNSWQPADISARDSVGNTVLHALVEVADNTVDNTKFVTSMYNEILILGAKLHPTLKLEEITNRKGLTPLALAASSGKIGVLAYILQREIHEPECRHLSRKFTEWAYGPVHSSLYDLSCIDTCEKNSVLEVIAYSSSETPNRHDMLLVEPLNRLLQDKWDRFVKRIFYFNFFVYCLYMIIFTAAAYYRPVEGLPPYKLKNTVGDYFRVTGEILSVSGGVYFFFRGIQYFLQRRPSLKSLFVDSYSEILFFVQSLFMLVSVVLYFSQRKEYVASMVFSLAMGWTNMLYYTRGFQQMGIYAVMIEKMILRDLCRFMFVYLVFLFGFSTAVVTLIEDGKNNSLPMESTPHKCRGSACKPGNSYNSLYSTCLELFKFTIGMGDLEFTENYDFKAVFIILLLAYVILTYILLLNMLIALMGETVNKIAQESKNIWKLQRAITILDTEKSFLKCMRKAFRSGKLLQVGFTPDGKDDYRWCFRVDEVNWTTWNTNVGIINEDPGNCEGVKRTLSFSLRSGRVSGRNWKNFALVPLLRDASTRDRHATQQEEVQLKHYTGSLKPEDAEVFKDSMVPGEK

For the compound `FC(F)(F)c1ccc(Nc2nc(N3CCC3)nc3sc(Nc4c(Cl)cccc4Cl)nc23)cc1` [Example 59, 5-Azetidin-1-yl-N^2-(2,6-dichloro-phenyl)-N^7-(4-trifluoromethyl-phenyl)-thiazolo[5,4-d]pyrimidine-2,7-diamine], the IC50 against rat TRPV1 was found to be 22 nM; against human TRPV1, 63 nM.
On to `FC(F)(F)c1ccc(Nc2nc(NCC3CC3)nc3sc(Nc4c(Cl)cccc4Cl)nc23)cc1` [Example 62, N^5-Cyclopropylmethyl-N^2-(2,6-dichloro-phenyl)-N^7-(4-trifluoromethyl-phenyl)-thiazolo[5,4-d]pyrimidine-2,5,7-triamine], for which the values for the 50% inhibitory concentration (IC50) at rat TRPV1 and against human TRPV1 were 4 nM and 20 nM, respectively.
For `FC(F)(F)c1ccc(Nc2nc(N3CCOCC3)nc3sc(Nc4c(Cl)cccc4Cl)nc23)cc1` [Example 64, N^2-(2,6-Dichloro-phenyl)-5-morpholin-4-yl-N^7-(4-trifluoromethyl-phenyl)-thiazolo[5,4-d]pyrimidine-2,7-diamine], the figures for the IC50 against rat TRPV1 and against human TRPV1 were 17 nM and 41 nM, respectively.
On to `CC(C)N1CCN(c2nc(Nc3ccc(C(F)(F)F)cc3)c3nc(Nc4c(Cl)cccc4Cl)sc3n2)CC1` [Example 69, N^2-(2,6-Dichloro-phenyl)-5-(4-isopropyl-piperazin-1-yl)-N^7-(4-trifluoromethyl-phenyl)-thiazolo[5,4-d]pyrimidine-2,7-diamine], for which the concentration for half-maximal inhibition (IC50) is 154 nM against rat TRPV1 and 185 nM against human TRPV1.
For `FC(F)(F)c1ccc(Nc2nc(-c3ccccc3)nc3sc(Nc4c(Cl)cccc4Cl)nc23)cc1` [Example 70, N^2-(2,6-Dichloro-phenyl)-5-phenyl-N^7-(4-trifluoromethyl-phenyl)-thiazolo[5,4-d]pyrimidine-2,7-diamine], the IC50 against rat TRPV1 came out at 83 nM; against human TRPV1, 225 nM.
As to `FC(F)(F)c1ccc(Nc2ncnc3sc(Nc4c(Cl)cncc4Cl)nc23)cc1` [Example 72, N^2-(3,5-Dichloro-pyridin-4-yl)-N^7-(4-trifluoromethyl-phenyl)-thiazolo[5,4-d]pyrimidine-2,7-diamine], the IC50 against rat TRPV1 worked out at 627 nM; against human TRPV1, 740 nM.
The corresponding values for `Cc1nc(Nc2ccc(S(=O)(=O)N3CCCC3)cc2)c2nc(Nc3c(Cl)cccc3Cl)sc2n1` [Example 73, N^2-(2,6-Dichloro-phenyl)-5-methyl-N^7-[4-(pyrrolidine-1-sulfonyl)-phenyl]-thiazolo[5,4-d]pyrimidine-2,7-diamine] are 1 nM and 1 nM.
Regarding `Cc1nc(Nc2ccc(C(C)(C)O)cc2)c2nc(Nc3c(Cl)cccc3Cl)sc2n1` [Example 74, 2-{4-[2-(2,6-Dichloro-phenylamino)-5-methyl-thiazolo[5,4-d]pyrimidin-7-ylamino]-phenyl}-propan-2-ol], the 50% inhibitory concentration (IC50) is 0.05 nM against rat TRPV1 and 1 nM against human TRPV1.
Take `CN(C)S(=O)(=O)c1ccc(Nc2ncnc3sc(Nc4c(Cl)cccc4Cl)nc23)cc1` [Example 75, 4-[2-(2,6-Dichloro-phenylamino)-thiazolo[5,4-d]pyrimidin-7-ylamino]-N,N-dimethyl-benzenesulfonamide]: the IC50 against rat TRPV1 and against human TRPV1 was 1 nM throughout.
Regarding `O=S(=O)(c1ccc(Nc2ncnc3sc(Nc4c(Cl)cccc4Cl)nc23)cc1)N1CCCC1` [Example 76, N^2-(2,6-Dichloro-phenyl)-N^7-[4-(pyrrolidine-1-sulfonyl)-phenyl]-thiazolo[5,4-d]pyrimidine-2,7-diamine], the IC50 on rat TRPV1 and at human TRPV1 was 1 nM in each case.
On to `Cc1nc(Nc2ccc(S(=O)(=O)C(F)(F)F)cc2)c2nc(Nc3c(Cl)cccc3Cl)sc2n1` [Example 77, N^2-(2,6-Dichloro-phenyl)-5-methyl-N^7-(4-trifluoromethanesulfonyl-phenyl)-thiazolo[5,4-d]pyrimidine-2,7-diamine], for which the half-maximal inhibitory concentration (IC50) is 2 nM against rat TRPV1 and 1 nM on human TRPV1.

(Values after patent US20080004253A1, “Thiazolopyrimidine modulators of TRPV1” (priority 2006, published 2008).)
